{"source": "patent US20240300977A1", "about": "“INHIBITORS OF DNA-DEPENDENT PROTEIN KINASE AND COMPOSITIONS AND USES THEREOF” (Intellia Therapeutics, Inc., priority 2021, published 2024)", "key": {"T cells [1]": {"tested_on": "T cells", "test": "Insertion percent in T cells of Example 17", "type": "cell-based, human", "conditions": "T cells from Example 12; FIG. 9B", "source_text": "(§1) On day 8 post-editing, T cells from Example 12 from the untreated, unedited, Compound 3 and Compound 4 guides samples were collected, spun down and the pellets were directly used as input material for gDNA isolation using “Zymo Quick DNA/RNA Mag Beads Kit” (Zymo Cat. R2131). The UnIT structural variant characterization assay was applied to these gDNA samples. High molecular weight genomic DNA is simultaneously fragmented and sequence-tagged (‘tagmented’) with the Tn5 transposase and an adapter with a partial Illumina P5 sequence and a 12 bp unique molecular identifier (UMI). Two sequential PCRs using a primer to P5 and hemi-nested gene specific primers (GSP) imparting the Illumina the P7 sequence to create two Illumina compatible NGS libraries per sample (Illumina, Ref 15033624). Sequencing across both directions of the CRISPR/Cas9 targeted cut site with the two libraries allows the inference and quantification of structural variants in DNA repair outcomes after genome editing. If the two fragments were aligned to different chromosomes, the SV was classified as an “inter-chromosomal translocation.” The magnitude of structural variation was shown in FIG. 9A and Table 18."}, "T cells [2]": {"tested_on": "T cells", "test": "Off-target structural variation by UnIT", "type": "cell-based, human", "conditions": "T cells from Example 12, day 8 post-editing; TRAC sgRNA G013006", "source_text": "as §1"}}, "data": [{"smiles": "Cc1cc2ncnn2cc1Nc1ncc2c(n1)n(C1CCC3(CC1)CC3)c(=O)n2C", "note": "[Compound 4, 7-methyl-2-((7-methyl-[1,2,4]triazolo[1,5-a]pyridin-6-yl)amino)-9-(spiro[2.5]octan-6-yl)-7,9-dihydro-8H-purin-8-one]", "values": [{"measurement": "Insertion Percent (Average)", "setting": "T cells [1]", "result": 67.82, "unit": "%"}, {"measurement": "Unintended Structural Variance (Average)", "setting": "T cells [2]", "result": 1.46, "unit": "%"}]}]}
